According to ChEMBL document CHEMBL4392877, “Cytotoxic Pregnane Steroidal Glycosides from Chonemorpha megacalyx” (J Nat Prod, 2019):

Key:
HepG2 = assay: Antiproliferative activity against human HepG2 cells measured after 48 hrs by MTT assay; assay type: functional, cell-based; conditions: HepG2, 48 h
PC-3 = assay: Antiproliferative activity against human PC3 cells measured after 48 hrs by MTT assay; assay type: functional, cell-based; conditions: PC-3, 48 h
WI-38 = assay: Cytotoxicity activity against human WI38 cells measured after 48 hrs by MTT assay; assay type: cell-based; conditions: WI-38, 48 h
A549 = assay: Antiproliferative activity against human A549 cells measured after 48 hrs by MTT assay; assay type: functional, cell-based; conditions: A549, 48 h

SMILES | IC50 (HepG2) [µM] | IC50 (PC-3) [µM] | IC50 (A549) [µM] | IC50 (WI-38) [µM]
CO[C@H]1C[C@H](O[C@H]2CC[C@@]3(C)[C@@H](CC[C@H]4C5=CC(=O)[C@@H]6[C@@H](C)OC(=O)[C@]56CC[C@@H]43)C2)O[C@H](C)[C@H]1O | > 50 | > 50 | > 50 | > 50
C[C@H]1OC(=O)[C@]23CC[C@@H]4[C@@]5(C)CC[C@H](O)CC5=CC[C@@]4(O)[C@@]2(O)CC[C@H]13 | > 50 | > 50 | > 50 | > 50
C[C@H]1OC(=O)[C@]23CC[C@H]4[C@@H](CC[C@H]5C[C@@H](O)CC[C@@]54C)[C@@]2(O)CC[C@H]13 | > 50 | > 50 | > 50 | > 50
CO[C@H]1C[C@H](O[C@H]2CC[C@@]3(C)C(=CC[C@H]4C5=CC(=O)[C@@H]6[C@@H](C)OC(=O)[C@]56CC[C@@H]43)C2)O[C@H](C)[C@H]1O[C@@H]1C[C@@H](OC)[C@H](O)[C@@H](C)O1 | 2 | 3.6 | 2.4 | 5.5
CO[C@H]1C[C@H](O[C@H]2CC[C@@]3(C)C(=C(C=O)[C@@H]4[C@@H]3CC[C@]35C(=O)O[C@H](C)[C@H]3CC[C@]45O)C2)O[C@H](C)[C@H]1O | > 50 | > 50 | > 50 | > 50
CO[C@H]1C[C@H](O[C@H]2CC[C@@]3(C)[C@@H](CC[C@H]4C5=CC(=O)[C@@H]6[C@@H](C)OC(=O)[C@]56CC[C@@H]43)C2)O[C@H](C)[C@H]1O[C@H]1C[C@@H](OC)[C@H](O)[C@@H](C)O1 | > 50 | > 50 | > 50 | > 50
CO[C@H]1C[C@@H](O[C@H]2[C@@H](O)C[C@H](O[C@H]3CC[C@@]4(C)C(=CC[C@@H]5[C@@H]4CC[C@]46C(=O)O[C@H](C)[C@H]4CC[C@]56O)C3)O[C@@H]2C)O[C@H](C)[C@H]1O | > 50 | > 50 | > 50 | > 50
CO[C@H]1C[C@@H](O[C@H]2[C@@H](OC)C[C@H](O[C@H]3CC[C@@]4(C)C(=CC[C@@H]5[C@@H]4CC[C@]46C(=O)O[C@H](C)[C@H]4CC[C@]56O)C3)O[C@@H]2C)O[C@H](C)[C@H]1O | > 50 | > 50 | > 50 | > 50

More lines, main results first:

IC50 (HepG2) [µM] | IC50 (PC-3) [µM] | IC50 (A549) [µM] | SMILES | IC50 (WI-38) [µM]
> 50 | > 50 | > 50 | CO[C@H]1C[C@@H](O[C@H]2[C@@H](O)C[C@H](O[C@H]3CC[C@@]4(C)[C@@H](CC[C@H]5C6=CC(=O)[C@@H]7[C@@H](C)OC(=O)[C@]67CC[C@@H]54)C3)O[C@@H]2C)O[C@H](C)[C@H]1O | > 50
> 50 | > 50 | > 50 | C[C@H]1OC(=O)[C@]23CC[C@H]4[C@@H](C(C=O)=C5C[C@@H](O)CC[C@@]54C)[C@@]2(O)CC[C@H]13 | > 50
> 50 | > 50 | > 50 | CO[C@H]1C[C@@H](O[C@@H]2[C@H](O)C[C@H](O[C@H]3CC[C@@]4(C)C(=CC[C@H]5C6=CC(=O)[C@@H]7[C@@H](C)OC(=O)[C@]67CC[C@@H]54)C3)O[C@@H]2C)O[C@H](C)[C@H]1O | > 50
> 50 | > 50 | > 50 | CO[C@H]1C[C@H](O[C@H]2CC[C@@]3(C)C(=CC[C@@H]4[C@@H]3CC[C@]35C(=O)O[C@H](C)[C@H]3CC[C@]45O)C2)O[C@H](C)[C@H]1O[C@@H]1C[C@H](OC)[C@H](O[C@@H]2C[C@@H](OC)[C@H](O)[C@@H](C)O2)[C@@H](C)O1 | > 50
> 50 | > 50 | > 50 | C[C@H]1O[C@@H](O[C@H]2CC[C@@]3(C)[C@@H](CC[C@H]4C5=CC(=O)[C@@H]6[C@@H](C)OC(=O)[C@]56CC[C@@H]43)C2)C[C@H](O)[C@@H]1O | > 50
> 50 | > 50 | > 50 | C[C@H]1O[C@@H](O[C@H]2CC[C@@]3(C)C(=CC[C@H]4C5=CC(=O)[C@@H]6[C@@H](C)OC(=O)[C@]56CC[C@@H]43)C2)C[C@H](O)[C@@H]1O | > 50
0.5 to 0.8 | 0.5 to 0.8 | 0.5 to 0.8 | COc1cccc2c1C(=O)c1c(O)c3c(c(O)c1C2=O)C[C@@](O)(C(=O)CO)C[C@@H]3O[C@H]1C[C@H](N)[C@H](O)[C@H](C)O1 [DOXORUBICIN] | –
